In US9149038B2, “4-amino-6-(heterocyclic)picolinates and 6-amino-2-(heterocyclic)pyrimidine-4-carboxylates and their use as herbicides” (Dow AgroSciences LLC, priority 2013, dated 2015):
Where two headings read alike, the source gives them in different places.

System: Direct Seeded Rice and weed species
Assay: Postemergence herbicidal activity in direct seeded rice, visual rating after 20-22 days and probit GR20/GR50/GR80/GR90 (Table 14)
Format: in vivo
Details: for pest or weed control at 17.5 g/ha / pest or weed control at 35 g/ha / pest or weed control at 70 g/ha: post-emergence, 504 h, postemergence; for pest or weed control at 17.5 g/ha: 17.5 g ai/ha; for pest or weed control at 35 g/ha: 35 g ai/ha; for pest or weed control at 70 g/ha: 70 g ai/ha
How it was run: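 Visual injury scores (0 = none, 100 = complete kill) taken 20-22 days after treatment and fitted by probit analysis over several doses to give GR20/GR50/GR80/GR90. Plants at 2nd–3rd true leaf in pH about 8.1 loam–sand mix received track-sprayer applications of 187 L/ha containing 1.25% (v/v) crop oil concentrate.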

[1] = BRAPP (broadleaf signalgrass, Brachiaria platyphylla), read-out: Visual Growth Reduction (%) 21 Days After Application BRAPP
[2] = CYPDI (small-flower flatsedge, Cyperus difformis), read-out: Visual Growth Reduction (%) 21 Days After Application CYPDI
[3] = CYPES (yellow nutsedge, Cyperus esculentus), read-out: Visual Growth Reduction (%) 21 Days After Application CYPES
[4] = CYPIR (rice flatsedge, Cyperus iria), read-out: Visual Growth Reduction (%) 21 Days After Application CYPIR
[5] = DIGSA (large crabgrass, Digitaria sanguinalis), read-out: Visual Growth Reduction (%) 21 Days After Application DIGSA
[6] = ECHCG (barnyardgrass, Echinochloa crus-galli), read-out: Visual Growth Reduction (%) 21 Days After Application ECHCG
[7] = ECHCO (junglerice, Echinochloa colonum), read-out: Visual Growth Reduction (%) 21 Days After Application ECHCO
[8] = LEFCH (Chinese sprangletop, Leptochloa chinensis), read-out: Visual Growth Reduction (%) 21 Days After Application LEFCH
[9] = ORYSJ (Oryza sativa, rice crop), read-out: Visual Growth Reduction (%) 21 Days After Application ORYSJ
[10] = ORYSK (Oryza sativa, rice crop), read-out: Visual Growth Reduction (%) 21 Days After Application ORYSK
[11] = SCPJU (Japanese bulrush, Schoenoplectus juncoides Roxb.), read-out: Visual Growth Reduction (%) 21 Days After Application SCPJU
[12] = SEBEX (hemp sesbania, Sesbania exaltata), read-out: Visual Growth Reduction (%) 21 Days After Application SEBEX

COc1c(C(=O)O)nc(-c2ccc3c(c2)OC(F)(F)O3)c(F)c1N [Compound 25]
GR50 BRAPP (BRAPP (Brachiaria platyphylla), probit analysis, dose for 50 percent growth reduction): 4 g ai/ha
GR80 BRAPP (BRAPP (Brachiaria platyphylla), probit analysis, dose for 80 percent growth reduction): 9 g ai/ha
GR90 BRAPP (BRAPP (Brachiaria platyphylla), probit analysis, dose for 90 percent growth reduction): 13 g ai/ha
GR50 CYPDI (CYPDI (Cyperus difformis), probit analysis, dose for 50 percent growth reduction): 0.04 g ai/ha
GR80 CYPDI (CYPDI (Cyperus difformis), probit analysis, dose for 80 percent growth reduction): 1 g ai/ha
GR90 CYPDI (CYPDI (Cyperus difformis), probit analysis, dose for 90 percent growth reduction): 2 g ai/ha
GR50 CYPES (CYPES (Cyperus esculentus), probit analysis, dose for 50 percent growth reduction): 0.04 g ai/ha
GR80 CYPES (CYPES (Cyperus esculentus), probit analysis, dose for 80 percent growth reduction): 1 g ai/ha
GR90 CYPES (CYPES (Cyperus esculentus), probit analysis, dose for 90 percent growth reduction): 1 g ai/ha
GR50 CYPIR (CYPIR (Cyperus iria), probit analysis, dose for 50 percent growth reduction): 2 g ai/ha
GR80 CYPIR (CYPIR (Cyperus iria), probit analysis, dose for 80 percent growth reduction): 5 g ai/ha
GR90 CYPIR (CYPIR (Cyperus iria), probit analysis, dose for 90 percent growth reduction): 9 g ai/ha
GR50 DIGSA (DIGSA (Digitaria sanguinalis), probit analysis, dose for 50 percent growth reduction): 27 g ai/ha
GR80 DIGSA (DIGSA (Digitaria sanguinalis), probit analysis, dose for 80 percent growth reduction): 2530 g ai/ha
GR90 DIGSA (DIGSA (Digitaria sanguinalis), probit analysis, dose for 90 percent growth reduction): 27000 g ai/ha
GR50 ECHCG (ECHCG (Echinochloa crus-galli), probit analysis, dose for 50 percent growth reduction): 0.025 g ai/ha
GR80 ECHCG (ECHCG (Echinochloa crus-galli), probit analysis, dose for 80 percent growth reduction): 1 g ai/ha
GR90 ECHCG (ECHCG (Echinochloa crus-galli), probit analysis, dose for 90 percent growth reduction): 3 g ai/ha
GR50 ECHCO (ECHCO (Echinochloa colonum), probit analysis, dose for 50 percent growth reduction): 2 g ai/ha
GR80 ECHCO (ECHCO (Echinochloa colonum), probit analysis, dose for 80 percent growth reduction): 4 g ai/ha
GR90 ECHCO (ECHCO (Echinochloa colonum), probit analysis, dose for 90 percent growth reduction): 6 g ai/ha
GR50 LEFCH (LEFCH (Leptochloa chinensis), probit analysis, dose for 50 percent growth reduction): 175 g ai/ha
GR80 LEFCH (LEFCH (Leptochloa chinensis), probit analysis, dose for 80 percent growth reduction): 463 g ai/ha
GR90 LEFCH (LEFCH (Leptochloa chinensis), probit analysis, dose for 90 percent growth reduction): 770 g ai/ha
GR20 ORYSJ (ORYSJ (Oryza sativa, rice crop), probit analysis, dose for 20 percent growth reduction): 1 g ai/ha
GR20 ORYSK (ORYSK (Oryza sativa, rice crop), probit analysis, dose for 20 percent growth reduction): 3 g ai/ha
GR50 SCPJU (SCPJU (Schoenoplectus juncoides Roxb.), probit analysis, dose for 50 percent growth reduction): 0.0001 g ai/ha
GR80 SCPJU (SCPJU (Schoenoplectus juncoides Roxb.), probit analysis, dose for 80 percent growth reduction): 0.0001 g ai/ha
GR90 SCPJU (SCPJU (Schoenoplectus juncoides Roxb.), probit analysis, dose for 90 percent growth reduction): 0.0001 g ai/ha
GR50 SEBEX (SEBEX (Sesbania exaltata), probit analysis, dose for 50 percent growth reduction): 19 g ai/ha
GR80 SEBEX (SEBEX (Sesbania exaltata), probit analysis, dose for 80 percent growth reduction): 26 g ai/ha
GR90 SEBEX (SEBEX (Sesbania exaltata), probit analysis, dose for 90 percent growth reduction): 30 g ai/ha
pest or weed control at 17.5 g/ha [1]: 95 to 100%
pest or weed control at 35 g/ha [1]: 95 to 100%
pest or weed control at 70 g/ha [1]: 95 to 100%
pest or weed control at 17.5 g/ha [2]: 95 to 100%
pest or weed control at 35 g/ha [2]: 95 to 100%
pest or weed control at 70 g/ha [2]: 95 to 100%
pest or weed control at 17.5 g/ha [3]: 95 to 100%
pest or weed control at 35 g/ha [3]: 95 to 100%
pest or weed control at 70 g/ha [3]: 95 to 100%
pest or weed control at 17.5 g/ha [4]: 85 to 94%
pest or weed control at 35 g/ha [4]: 95 to 100%
pest or weed control at 70 g/ha [4]: 95 to 100%
pest or weed control at 17.5 g/ha [5]: 30 to 44%
pest or weed control at 35 g/ha [5]: 60 to 74%
pest or weed control at 70 g/ha [5]: 60 to 74%
pest or weed control at 17.5 g/ha [6]: 95 to 100%
pest or weed control at 35 g/ha [6]: 95 to 100%
pest or weed control at 70 g/ha [6]: 95 to 100%
pest or weed control at 17.5 g/ha [7]: 95 to 100%
pest or weed control at 35 g/ha [7]: 95 to 100%
pest or weed control at 70 g/ha [7]: 95 to 100%
pest or weed control at 17.5 g/ha [8]: 0 to 29%
pest or weed control at 35 g/ha [8]: 0 to 29%
pest or weed control at 70 g/ha [8]: 0 to 29%
pest or weed control at 17.5 g/ha [9]: 85 to 94%
pest or weed control at 35 g/ha [9]: 95 to 100%
pest or weed control at 70 g/ha [9]: 95 to 100%
pest or weed control at 17.5 g/ha [10]: 85 to 94%
pest or weed control at 35 g/ha [10]: 85 to 94%
pest or weed control at 70 g/ha [10]: 95 to 100%
pest or weed control at 17.5 g/ha [11]: 95 to 100%
pest or weed control at 35 g/ha [11]: 95 to 100%
pest or weed control at 70 g/ha [11]: 95 to 100%
pest or weed control at 17.5 g/ha [12]: 0 to 29%
pest or weed control at 35 g/ha [12]: 95 to 100%
pest or weed control at 70 g/ha [12]: 95 to 100%
